Assay results published in patent US11987588B2, “Modulators of the beta-3 adrenergic receptor useful for the treatment or prevention of heart failure and disorders related thereto” (Arena Pharmaceuticals, Inc., priority 2017, dated 2024).

Target: Beta-3 Adrenergic Receptor (Homo sapiens (Human), UniProt P13945)
Assay: Homogeneous Time-Resolved Fluorescence (HTRF) cAMP antagonist assay, IC50 determination
Format: cell-based
Details: CHO-K1 cells stably expressing recombinant receptor, isoproterenol at EC90
How it was run: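 CHO-K1 cells stably expressing the recombinant receptor were preincubated with compound (10-point, 5-fold dilutions; top final typically 10 or 100 μM) in PBS with 1 mM IBMX, then stimulated with isoproterenol at its EC90 for 1 h at room temperature. cAMP was read by HTRF against an on-plate standard curve.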

Sequence of Beta-3 Adrenergic Receptor (P13945 whole entry, species assumed): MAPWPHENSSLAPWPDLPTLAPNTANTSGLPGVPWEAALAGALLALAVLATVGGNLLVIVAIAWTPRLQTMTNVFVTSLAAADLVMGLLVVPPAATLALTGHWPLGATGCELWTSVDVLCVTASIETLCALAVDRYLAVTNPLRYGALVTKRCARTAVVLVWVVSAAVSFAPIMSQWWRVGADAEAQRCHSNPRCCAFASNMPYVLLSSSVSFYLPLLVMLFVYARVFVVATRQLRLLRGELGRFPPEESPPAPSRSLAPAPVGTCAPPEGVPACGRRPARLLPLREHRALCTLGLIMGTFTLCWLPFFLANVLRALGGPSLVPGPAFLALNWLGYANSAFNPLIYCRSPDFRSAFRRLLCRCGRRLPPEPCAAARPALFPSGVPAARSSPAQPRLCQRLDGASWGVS

| IC50 [nM] | SMILES |
| --- | --- |
| 49.6 | CNS(=O)(=O)c1cccc(OC[C@@H](O)CNC2COC3(CCN(S(=O)(=O)c4cc(Br)ccc4OCCN4CCCC4)CC3)C2)c1 (stereo partly drawn) [Compound 412, 3-((2S)-3-(8-(5-bromo-2-(2-(pyrrolidin-1-yl)ethoxy)phenylsulfonyl)-1-oxa-8-azaspiro[4.5]decan-3-ylamino)-2-hydroxypropoxy)-N-methylbenzenesulfonamide] |
| 14 | CNS(=O)(=O)c1cccc(OC[C@@H](O)CN[C@@H]2COC3(CCN(S(=O)(=O)c4cnc5c(c4)N(C)CCO5)CC3)C2)c1 [Compound 413, 3-((S)-2-hydroxy-3-((S)-8-(1-methyl-2,3-dihydro-1H-pyrido[2,3-b][1,4]oxazin-7-ylsulfonyl)-1-oxa-8-azaspiro[4.5]decan-3-ylamino)propoxy)-N-methylbenzenesulfonamide] |
| 16.8 | CNS(=O)(=O)c1cccc(OC[C@@H](O)CN[C@H]2COC3(CCN(S(=O)(=O)c4cnc5c(c4)N(C)CCO5)CC3)C2)c1 [Compound 414, 3-((S)-2-hydroxy-3-((R)-8-(1-methyl-2,3-dihydro-1H-pyrido[2,3-b][1,4]oxazin-7-ylsulfonyl)-1-oxa-8-azaspiro[4.5]decan-3-ylamino)propoxy)-N-methylbenzenesulfonamide] |
| 19.5 | CNS(=O)(=O)c1cccc(OC[C@@H](O)CN[C@@H]2COC3(CCN(S(=O)(=O)c4cc(-c5ccc(CN)cc5)ccc4OC(F)(F)F)CC3)C2)c1 [Compound 415, 3-((S)-3-((S)-8-(4′-(aminomethyl)-4-(trifluoromethoxy)biphenyl-3-ylsulfonyl)-1-oxa-8-azaspiro[4.5]decan-3-ylamino)-2-hydroxypropoxy)-N-methylbenzenesulfonamide] |
| 262 | CNS(=O)(=O)c1cccc(OC[C@@H](O)CN[C@H]2COC3(CCN(S(=O)(=O)c4cc(-c5ccc(CN)cc5)ccc4OC(F)(F)F)CC3)C2)c1 [Compound 416, 3-((S)-3-((R)-8-(4′-(aminomethyl)-4-(trifluoromethoxy)biphenyl-3-ylsulfonyl)-1-oxa-8-azaspiro[4.5]decan-3-ylamino)-2-hydroxypropoxy)-N-methylbenzenesulfonamide] |
| 112 | CN1CCOc2ncc(S(=O)(=O)N3CCC4(CC3)C[C@@H](NC[C@H](O)COc3cccc(S(=O)(=O)NCCO)c3)CO4)cc21 [Compound 417, 3-((S)-2-hydroxy-3-((R)-8-(1-methyl-2,3-dihydro-1H-pyrido[2,3-b][1,4]oxazin-7-ylsulfonyl)-1-oxa-8-azaspiro[4.5]decan-3-ylamino)propoxy)-N-(2-hydroxyethyl)benzenesulfonamide] |
| 172 | C[C@H](CO)NS(=O)(=O)c1cccc(OC[C@@H](O)CN[C@H]2COC3(CCN(S(=O)(=O)c4cnc5c(c4)N(C)CCO5)CC3)C2)c1 [Compound 418, 3-((S)-2-hydroxy-3-((R)-8-(1-methyl-2,3-dihydro-1H-pyrido[2,3-b][1,4]oxazin-7-ylsulfonyl)-1-oxa-8-azaspiro[4.5]decan-3-ylamino)propoxy)-N—((R)-1-hydroxypropan-2-yl)benzenesulfonamide] |
| 9.69 | CCOc1ccc(-c2ccc(CN)cc2)cc1S(=O)(=O)N1CCC2(CC1)C[C@H](NC[C@H](O)COc1cccc(S(=O)(=O)NC)c1)CO2 [Compound 419, 3-((S)-3-((S)-8-(4′-(aminomethyl)-4-ethoxybiphenyl-3-ylsulfonyl)-1-oxa-8-azaspiro[4.5]decan-3-ylamino)-2-hydroxypropoxy)-N-methylbenzenesulfonamide] |
| 10.2 | CCOc1ccc(-c2ccc(CN)cc2)cc1S(=O)(=O)N1CCC2(CC1)C[C@@H](NC[C@H](O)COc1cccc(S(=O)(=O)NC)c1)CO2 [Compound 420, 3-((S)-3-((R)-8-(4′-(aminomethyl)-4-ethoxybiphenyl-3-ylsulfonyl)-1-oxa-8-azaspiro[4.5]decan-3-ylamino)-2-hydroxypropoxy)-N-methylbenzenesulfonamide] |
| 16.9 | CNS(=O)(=O)c1cccc(OC[C@@H](O)CNC2COC3(CCN(S(=O)(=O)c4ccc(N5CCCCC5)nc4)CC3)C2)c1 (stereo partly drawn) [Compound 421, 3-((2S)-2-hydroxy-3-(8-(6-(piperidin-1-yl)pyridin-3-ylsulfonyl)-1-oxa-8-azaspiro[4.5]decan-3-ylamino)propoxy)-N-methylbenzenesulfonamide] |
| 16.7 | CNS(=O)(=O)c1cccc(OC[C@@H](O)CNC2COC3(CCN(S(=O)(=O)c4ccc(N(C)C)nc4)CC3)C2)c1 (stereo partly drawn) [Compound 422, 3-((2S)-3-(8-(6-(dimethylamino)pyridin-3-ylsulfonyl)-1-oxa-8-azaspiro[4.5]decan-3-ylamino)-2-hydroxypropoxy)-N-methylbenzenesulfonamide] |
| 12.6 | CCN1CCOc2ncc(S(=O)(=O)N3CCC4(CC3)CC(NC[C@H](O)COc3cccc(S(=O)(=O)NC)c3)CO4)cc21 (stereo partly drawn) [Compound 423, 3-((2S)-3-(8-(1-ethyl-2,3-dihydro-1H-pyrido[2,3-b][1,4]oxazin-7-ylsulfonyl)-1-oxa-8-azaspiro[4.5]decan-3-ylamino)-2-hydroxypropoxy)-N-methylbenzenesulfonamide] |
| 51.3 | C[C@H](CO)NS(=O)(=O)c1cccc(OC[C@@H](O)CN[C@@H]2COC3(CCN(S(=O)(=O)c4cccc(-c5ccc(CN)cc5)c4)CC3)C2)c1 [Compound 424, 3-((S)-3-((S)-8-(4′-(aminomethyl)biphenyl-3-ylsulfonyl)-1-oxa-8-azaspiro[4.5]decan-3-ylamino)-2-hydroxypropoxy)-N—((R)-1-hydroxypropan-2-yl)benzenesulfonamide] |
| 216 | CNS(=O)(=O)c1cccc(OC[C@@H](O)CNC2COC3(CCN(S(=O)(=O)c4cnc(O)nc4)CC3)C2)c1 (stereo partly drawn) [Compound 425, 3-((2S)-2-hydroxy-3-(8-(2-hydroxypyrimidin-5-ylsulfonyl)-1-oxa-8-azaspiro[4.5]decan-3-ylamino)propoxy)-N-methylbenzenesulfonamide] |
| 98.6 | CNS(=O)(=O)c1cccc(OC[C@@H](O)CNC2COC3(CCN(S(=O)(=O)c4ccc(NCCOC)nc4)CC3)C2)c1 (stereo partly drawn) [Compound 426, 3-((2S)-2-hydroxy-3-(8-(6-(2-methoxyethylamino)pyridin-3-ylsulfonyl)-1-oxa-8-azaspiro[4.5]decan-3-ylamino)propoxy)-N-methylbenzenesulfonamide] |
| 184 | CN1CCOc2ncc(S(=O)(=O)N3CCC4(CC3)C[C@@H](NC[C@H](O)COc3cccc(S(=O)(=O)N[C@H]5CCC[C@@H]5O)c3)CO4)cc21 [Compound 427, 3-((S)-2-hydroxy-3-((R)-8-(1-methyl-2,3-dihydro-1H-pyrido[2,3-b][1,4]oxazin-7-ylsulfonyl)-1-oxa-8-azaspiro[4.5]decan-3-ylamino)propoxy)-N-((1S,2S)-2-hydroxycyclopentyl)benzenesulfonamide] |
| 61.5 | CNS(=O)(=O)c1cccc(OC[C@@H](O)CNC2COC3(CCN(S(=O)(=O)c4ccc(NCCO)nc4)CC3)C2)c1 (stereo partly drawn) [Compound 428, 3-((2S)-2-hydroxy-3-(8-(6-(2-hydroxyethylamino)pyridin-3-ylsulfonyl)-1-oxa-8-azaspiro[4.5]decan-3-ylamino)propoxy)-N-methylbenzenesulfonamide] |
| 149 | CNS(=O)(=O)c1cccc(OC[C@@H](O)CNC2COC3(CCN(S(=O)(=O)c4ccc(NCCN)nc4)CC3)C2)c1 (stereo partly drawn) [Compound 429, 3-((2S)-3-(8-(6-(2-aminoethylamino)pyridin-3-ylsulfonyl)-1-oxa-8-azaspiro[4.5]decan-3-ylamino)-2-hydroxypropoxy)-N-methylbenzenesulfonamide] |
| 93.4 | CNS(=O)(=O)c1cccc(OC[C@@H](O)CNC2COC3(CCN(S(=O)(=O)c4ccc(N5CCNCC5)nc4)CC3)C2)c1 (stereo partly drawn) [Compound 430, 3-((2S)-2-hydroxy-3-(8-(6-(piperazin-1-yl)pyridin-3-ylsulfonyl)-1-oxa-8-azaspiro[4.5]decan-3-ylamino)propoxy)-N-methylbenzenesulfonamide] |
| 1160 | CN1CCOc2ncc(S(=O)(=O)N3CCC4(CC3)C[C@@H](NC[C@H](O)COc3cccc(S(=O)(=O)N[C@H]5CCCC[C@@H]5O)c3)CO4)cc21 [Compound 431, 3-((S)-2-hydroxy-3-((R)-8-(1-methyl-2,3-dihydro-1H-pyrido[2,3-b][1,4]oxazin-7-ylsulfonyl)-1-oxa-8-azaspiro[4.5]decan-3-ylamino)propoxy)-N-((1S,2S)-2-hydroxycyclohexyl)benzenesulfonamide] |
| 196 | C[C@@H](CO)NS(=O)(=O)c1cccc(OC[C@@H](O)CN[C@H]2COC3(CCN(S(=O)(=O)c4cnc5c(c4)N(C)CCO5)CC3)C2)c1 [Compound 432, 3-((S)-2-hydroxy-3-((R)-8-(1-methyl-2,3-dihydro-1H-pyrido[2,3-b][1,4]oxazin-7-ylsulfonyl)-1-oxa-8-azaspiro[4.5]decan-3-ylamino)propoxy)-N—((S)-1-hydroxypropan-2-yl)benzenesulfonamide] |
| 352 | CNS(=O)(=O)c1cccc(OC[C@@H](O)CNC2COC3(CCN(c4cc(Cl)ccn4)CC3)C2)c1 (stereo partly drawn) [Compound 433, 3-((2S)-3-(8-(4-chloropyridin-2-yl)-1-oxa-8-azaspiro[4.5]decan-3-ylamino)-2-hydroxypropoxy)-N-methylbenzenesulfonamide] |
| 578 | C[C@H](O)CNS(=O)(=O)c1cccc(OC[C@@H](O)CN[C@H]2COC3(CCN(S(=O)(=O)c4cnc5c(c4)N(C)CCO5)CC3)C2)c1 [Compound 434, 3-((S)-2-hydroxy-3-((R)-8-(1-methyl-2,3-dihydro-1H-pyrido[2,3-b][1,4]oxazin-7-ylsulfonyl)-1-oxa-8-azaspiro[4.5]decan-3-ylamino)propoxy)-N—((S)-2-hydroxypropyl)benzenesulfonamide] |
| 191 | CN1CCOc2ncc(S(=O)(=O)N3CCC4(CC3)C[C@@H](NC[C@H](O)COc3cccc(S(=O)(=O)N[C@@H]5CCCC[C@@H]5O)c3)CO4)cc21 [Compound 435, 3-((S)-2-hydroxy-3-((R)-8-(1-methyl-2,3-dihydro-1H-pyrido[2,3-b][1,4]oxazin-7-ylsulfonyl)-1-oxa-8-azaspiro[4.5]decan-3-ylamino)propoxy)-N-((1R,2S)-2-hydroxycyclohexyl)benzenesulfonamide] |
